Results: US20090036474A1, “Quinazoline derivatives for use against cancer” (priority 2004, published 2009)

Tested on: MG63 osteosarcoma cells
Experiment: In vitro MG63 osteosarcoma proliferation assay, Test (c)
Assay type: cell-based
Settings: Homo sapiens, MG-63, BrdU, 72 hours, read-out: IC50 versus MG63 osteosarcoma proliferation
Description: This assay determined the ability of a test compound to inhibit the proliferation of MG63 osteosarcoma cells (ATCC CCL 1427):
MG63 cells were seeded at 1.5×10^3 cells per well into 96-well clear tissue culture-treated assay plates (Corning Life Sciences; Catalogue No. 3595) to which had been added 60 μl per well of test medium comprising DMEM without phenol red, 1% charcoal-stripped FCS and 2 mM glutamine and the cells were incubated overnight at 37° C. with 7.5% CO2.
Test compounds were solubilised in DMSO to provide a 10 mM stock solution. Aliquots of the stock solution were diluted with the test medium described above and 20 μl aliquots of each dilution were added to appropriate wells. Serial dilutions were made to give a range of test concentrations. […]
BrdU labelling reagent (Roche Diagnostics Ltd., Lewes, East Sussex, UK; Catalogue No. 647 229) was diluted by a factor of 1:100 in DMEM medium containing 1% charcoal stripped FCS and aliquots (10 μl) were added to each well to give a final concentration of 10 μM. […] Aqueous sulphuric acid (1M; 50 μl) was added to the appropriate wells to stop any further reaction and the absorbance of the wells was measured at 450 nm. The extent of inhibition of cellular proliferation at a range of concentrations of each test compound was determined and an anti-proliferative IC50 value was derived.

Question: `COc1cc2ncnc(Oc3cnn(CC(=O)Nc4cccc5c4OCO5)c3)c2cc1OC` [Example 2, N-(2,3-methylenedioxyphenyl)-2-[4-(6,7-dimethoxyquinazolin-4-yloxy)pyrazol-1-yl]acetamide] was tested. Which IC50 did it give?
Answer: Its IC50 is ~40 nM.
